Results published in US12036197B2, “Composition for improving bioavailability of drugs” (priority 2019, dated 2024).
Where a SMILES comes first, the peptide text is derived from it.

How the values were obtained:
[1] = PK test for small-intestinal administration of ACTH (ELISA); type: in vivo; conditions: SD rats
Source text: (§1) Laboratory Animals: Adult Male SD Rats.
(§2) The plasma was collected and subjected to quick freezing.

[2] = PK test for small-intestinal administration of Bivalirudin (ELISA); type: in vivo; conditions: SD rats
Source text: as §1, §2

in vivo [3] = experiment: in vivo
Source text: as §1, §2

in vivo [4] = experiment: in vivo; design: species or system SD rats; conditions: male, SD, rat
Source text: The composition of the present invention: polyethylene glycol 4000, carbomer, chitosan oligosaccharide, and citric acid, in a weight ratio of 19:6:6:60.
as §1, §2

[5] = PK test for small-intestinal administration of Octreotide (ELISA); type: in vivo; conditions: SD rats
Source text: as §1, §2

[6] = PK test for small-intestinal administration of Oxytocin (ELISA); type: in vivo; conditions: SD rats
Source text: as §1, §2

[7] = PK test for small-intestinal administration of Teduglutide (ELISA); type: in vivo; conditions: SD rats
Source text: The composition of the present invention: Tween 80, Carbomer 910, carboxymethyl Chitosan, and Sodium Tartrate, in a weight ratio of 25:8:8:80.
as §1, §2

[8] = PK test for small-intestinal administration of Teriparatide (ELISA); type: in vivo; conditions: SD rats
Source text: as §1, §2

[9] = PK test for small-intestinal administration of Thymosin alpha-1 (ELISA); type: in vivo; conditions: SD rats
Source text: as §1, §2

[10] = PK test for small-intestinal administration of Vasopressin (ELISA); type: in vivo; conditions: SD rats
Source text: as §1, §2

[11] = PK test for small-intestinal administration of Gramicidin (ELISA); type: in vivo; conditions: SD rats
Source text: as §1, §2

[12] = PK test for small-intestinal administration of Growth Hormone (ELISA); type: in vivo; conditions: SD rats
Source text: as §1, §2

[13] = PK test for small-intestinal administration of Mecasermin (ELISA); type: in vivo; conditions: SD rats
Source text: as §1, §2

[14] = PK test for small-intestinal administration of rInsulin (ELISA); type: in vivo; conditions: SD rats; small-intestinal administration at 200 μg/kg without composition
Source text: as §1, §2

[15] = small-intestinal administration at 200 μg/kg without composition
[16] = rat, in vivo, ei 200 μg/kg with composition sodium lauryl sulfate, carbomer, chitosan, sodium citrate 20:6.5:6.5:65 (1:5), vs iv 1 μg/kg

CSCC[C@H](NC(=O)[C@H](CO)NC(=O)[C@H](Cc1ccc(O)cc1)NC(=O)[C@@H](N)CO)C(=O)N[C@@H](CCC(=O)O)C(=O)N[C@@H](Cc1cnc[nH]1)C(=O)N[C@@H](Cc1ccccc1)C(=O)N[C@@H](CCCNC(=N)N)C(=O)N[C@@H](Cc1c[nH]c2ccccc12)C(=O)NCC(=O)N[C@@H](CCCCN)C(=O)N1CCC[C@H]1C(=O)N[C@H](C(=O)NCC(=O)N[C@@H](CCCCN)C(=O)N[C@@H](CCCCN)C(=O)N[C@@H](CCCNC(=N)N)C(=O)N[C@@H](CCCNC(=N)N)C(=O)N1CCC[C@H]1C(=O)N[C@H](C(=O)N[C@@H](CCCCN)C(=O)N[C@H](C(=O)N[C@@H](Cc1ccc(O)cc1)C(=O)N1CCC[C@H]1C(=O)N[C@@H](CC(N)=O)C(=O)NCC(=O)N[C@@H](C)C(=O)N[C@@H](CCC(=O)O)C(=O)N[C@@H](CC(=O)O)C(=O)N[C@@H](CCC(=O)O)C(=O)N[C@@H](CO)C(=O)N[C@@H](C)C(=O)N[C@@H](CCC(=O)O)C(=O)N[C@@H](C)C(=O)N[C@@H](Cc1ccccc1)C(=O)N1CCC[C@H]1C(=O)N[C@@H](CC(C)C)C(=O)N[C@@H](CCC(=O)O)C(=O)N[C@@H](Cc1ccccc1)C(=O)O)C(C)C)C(C)C)C(C)C [ACTH] (H-SYSMEHFRWGKPVGKKRRPVKVYPNGAEDESAEAFPLEF-OH)
blood concentration [1, 15]: lower than the detection limit of ELISA
bioavailability [1, 16]: 1.86%

CC[C@H](C)[C@H](NC(=O)[C@H](CCC(=O)O)NC(=O)[C@H](CCC(=O)O)NC(=O)[C@H](Cc1ccccc1)NC(=O)[C@H](CC(=O)O)NC(=O)CNC(=O)[C@H](CC(N)=O)NC(=O)CNC(=O)CNC(=O)CNC(=O)CNC(=O)[C@@H]1CCCN1C(=O)[C@H](CCCNC(=N)N)NC(=O)[C@@H]1CCCN1C(=O)[C@H](N)Cc1ccccc1)C(=O)N1CCC[C@H]1C(=O)N[C@@H](CCC(=O)O)C(=O)N[C@@H](CCC(=O)O)C(=O)N[C@@H](Cc1ccc(O)cc1)C(=O)N[C@@H](CC(C)C)C(=O)O [Bivalirudin]
blood concentration [2, 15]: lower than the detection limit of ELISA
bioavailability ([2]; rat, in vivo, ei 200 μg/kg with composition sodium lauryl sulfate, carbomer, chitosan, citric acid 19:6.5:7:67 (1:5), vs iv 1 μg/kg): 1.63%

CC(C)C[C@H](NC(=O)CNC(=O)[C@H](Cc1ccc(O)cc1)NC(=O)[C@H](CO)NC(=O)[C@H](Cc1c[nH]c2ccccc12)NC(=O)[C@H](Cc1cnc[nH]1)NC(=O)[C@@H]1CCC(=O)N1)C(=O)N[C@@H](CCCNC(=N)N)C(=O)N1CCC[C@H]1C(=O)NCC(N)=O [Gonadorelin]
blood concentration (in vivo [3]; SD rats, small-intestinal administration at 200 μg/kg without composition): lower than the detection limit of ELISA
bioavailability (in vivo [3]; male, SD, rat, plasma, 200 μg/kg): 1.58%

CCNC(=O)[C@@H]1CCCN1C(=O)[C@H](CCCNC(=N)N)NC(=O)[C@H](CC(C)C)NC(=O)[C@@H](CC(C)C)NC(=O)[C@H](Cc1ccc(O)cc1)NC(=O)[C@H](CO)NC(=O)[C@H](Cc1c[nH]c2ccccc12)NC(=O)[C@H](Cc1c[nH]cn1)NC(=O)[C@@H]1CCC(=O)N1 [Leuprolide]
bioavailability (in vivo [4]): 1.32%

C[C@@H](O)[C@@H]1NC(=O)[C@H](CCCCN)NC(=O)[C@@H](Cc2c[nH]c3ccccc23)NC(=O)[C@H](Cc2ccccc2)NC(=O)[C@@H](NC(=O)[C@H](N)Cc2ccccc2)CSSC[C@@H](C(=O)N[C@H](CO)[C@@H](C)O)NC1=O [Octreotide]
blood concentration [5, 15]: lower than the detection limit of ELISA
bioavailability ([5]; male, rat, plasma, ei 200 μg/kg with composition sodium lauryl sulfate, carbomer, chitosan, sodium citrate 21:7:6:69 (1:5), vs iv 1 μg/kg): 1.71%

CC[C@H](C)[C@@H]1NC(=O)[C@H](Cc2ccc(O)cc2)NC(=O)[C@@H](N)CSSC[C@@H](C(=O)N2CCC[C@H]2C(=O)N[C@@H](CC(C)C)C(=O)NCC(N)=O)NC(=O)[C@H](CC(N)=O)NC(=O)[C@H](CCC(N)=O)NC1=O [Oxytocin]
blood concentration [6, 15]: lower than the detection limit of ELISA
bioavailability ([6]; male, rat, plasma, ei 200 μg/kg with composition sodium lauryl sulfate, carbomer 934, water-soluble chitosan, disodium edetate 24:7.5:7:75 (1:5), vs iv 1 μg/kg): 2.58%

CC[C@H](C)[C@H](NC(=O)[C@H](Cc1ccccc1)NC(=O)[C@H](CC(=O)O)NC(=O)[C@H](CCCNC(=N)N)NC(=O)[C@H](C)NC(=O)[C@H](C)NC(=O)[C@H](CC(C)C)NC(=O)[C@H](CC(N)=O)NC(=O)[C@H](CC(=O)O)NC(=O)[C@H](CC(C)C)NC(=O)[C@@H](NC(=O)[C@@H](NC(=O)[C@H](CC(N)=O)NC(=O)[C@H](CCSC)NC(=O)[C@H](CCC(=O)O)NC(=O)[C@H](CC(=O)O)NC(=O)[C@H](CO)NC(=O)[C@H](Cc1ccccc1)NC(=O)[C@H](CO)NC(=O)CNC(=O)[C@H](CC(=O)O)NC(=O)CNC(=O)[C@@H](N)Cc1c[nH]cn1)[C@@H](C)O)[C@@H](C)CC)C(=O)N[C@@H](CC(N)=O)C(=O)N[C@@H](Cc1c[nH]c2ccccc12)C(=O)N[C@@H](CC(C)C)C(=O)N[C@H](C(=O)N[C@@H](CCC(N)=O)C(=O)N[C@H](C(=O)N[C@@H](CCCCN)C(=O)N[C@H](C(=O)N[C@H](C(=O)N[C@@H](CC(=O)O)C(=O)O)[C@@H](C)O)[C@@H](C)CC)[C@@H](C)O)[C@@H](C)CC [Teduglutide]
blood concentration [7, 15]: lower than the detection limit of ELISA
bioavailability ([7]; male, rat, plasma, ei 200 μg/kg with composition Tween 80, Carbomer 910, carboxymethyl Chitosan, Sodium Tartrate 25:8:8:80 (1:5), vs iv 1 μg/kg): 2.13%

CC[C@H](C)[C@H](NC(=O)[C@H](CCC(=O)O)NC(=O)[C@H](CO)NC(=O)[C@@H](NC(=O)[C@@H](N)CO)C(C)C)C(=O)N[C@@H](CCC(N)=O)C(=O)N[C@@H](CC(C)C)C(=O)N[C@@H](CCSC)C(=O)N[C@@H](Cc1cnc[nH]1)C(=O)N[C@@H](CC(N)=O)C(=O)N[C@@H](CC(C)C)C(=O)NCC(=O)N[C@@H](CCCCN)C(=O)N[C@@H](Cc1cnc[nH]1)C(=O)N[C@@H](CC(C)C)C(=O)N[C@@H](CC(N)=O)C(=O)N[C@@H](CO)C(=O)N[C@@H](CCSC)C(=O)N[C@@H](CCC(=O)O)C(=O)N[C@@H](CCCN=C(N)N)C(=O)N[C@H](C(=O)N[C@@H](CCC(=O)O)C(=O)N[C@@H](Cc1c[nH]c2ccccc12)C(=O)N[C@@H](CC(C)C)C(=O)N[C@@H](CCCN=C(N)N)C(=O)N[C@@H](CCCCN)C(=O)N[C@@H](CCCCN)C(=O)N[C@@H](CC(C)C)C(=O)N[C@@H](CCC(N)=O)C(=O)N[C@@H](CC(=O)O)C(=O)N[C@H](C(=O)N[C@@H](Cc1cnc[nH]1)C(=O)N[C@@H](CC(N)=O)C(=O)N[C@@H](Cc1ccccc1)C(=O)O)C(C)C)C(C)C [Teriparatide]
blood concentration [8, 15]: lower than the detection limit of ELISA
bioavailability ([8]; male, rat, plasma, ei 200 μg/kg with composition sodium lauryl sulfate, carbomer, chitosan, sodium citrate 20:6.5:6.5:65 (1:5), vs iv 1 μg/kg): 2.08%

CC[C@H](C)[C@H](NC(=O)[C@H](CCC(=O)O)NC(=O)[C@H](CO)NC(=O)[C@H](CO)NC(=O)[C@@H](NC(=O)[C@H](CC(=O)O)NC(=O)[C@@H](NC(=O)[C@H](C)NC(=O)[C@H](C)NC(=O)[C@H](CC(=O)O)NC(=O)[C@H](CO)NC(C)=O)C(C)C)[C@@H](C)O)C(=O)N[C@H](C(=O)N[C@H](C(=O)N[C@@H](CCCCN)C(=O)N[C@@H](CC(=O)O)C(=O)N[C@@H](CC(C)C)C(=O)N[C@@H](CCCCN)C(=O)N[C@@H](CCC(=O)O)C(=O)N[C@@H](CCCCN)C(=O)N[C@@H](CCCCN)C(=O)N[C@@H](CCC(=O)O)C(=O)N[C@H](C(=O)N[C@H](C(=O)N[C@@H](CCC(=O)O)C(=O)N[C@@H](CCC(=O)O)C(=O)N[C@@H](C)C(=O)N[C@@H](CCC(=O)O)C(=O)N[C@@H](CC(N)=O)C(=O)O)C(C)C)C(C)C)[C@@H](C)O)[C@@H](C)O [Thymosin alpha-1] (Ac-SDAAVDTSSEITTKDLKEKKEVVEEAEN-OH)
blood concentration [9, 15]: lower than the detection limit of ELISA
bioavailability [9, 16]: 0.65%

NC(=O)CC[C@@H]1NC(=O)[C@H](Cc2ccccc2)NC(=O)[C@H](Cc2ccc(O)cc2)NC(=O)[C@@H](N)CSSC[C@@H](C(=O)N2CCC[C@H]2C(=O)N[C@@H](CCCN=C(N)N)C(=O)NCC(N)=O)NC(=O)[C@H](CC(N)=O)NC1=O [Vasopressin]
blood concentration [10, 15]: lower than the detection limit of ELISA
bioavailability ([10]; male, rat, plasma, ei 200 μg/kg with composition sodium lauryl sulfate, carbomer, chitosan, sodium citrate 23:8:7.5:80 (1:5), vs iv 1 μg/kg): 1.81%

Gramicidin D
bioavailability of small-intestinal administration ([11]; ei 200 μg/kg with composition sodium lauryl sulfate, carbomer, chitosan, sodium citrate 19:6:6:60 (1:5), vs iv 1 μg/kg): 1.18%
blood concentration [11, 15]: lower than the detection limit of ELISA

Growth Hormone: Growth Hormone (rhGH)
bioavailability of small-intestinal administration ([12]; ei 200 μg/kg with composition sodium lauryl sulfate, carbomer, chitosan, sodium citrate 20:6.5:6.5:65 (1:5), vs iv 1 μg/kg): 0.32%
blood concentration [12, 15]: lower than the detection limit of ELISA

Mecasermin
bioavailability of small-intestinal administration ([13]; ei 200 μg/kg with composition sodium lauryl sulfate, carbomer, chitosan, sodium citrate 21:6:7:65 (1:5), vs iv 1 μg/kg): 1.38%
blood concentration [13, 15]: lower than the detection limit of ELISA

rInsulin: Recombinant Insulin (rInsulin)
blood concentration [14]: lower than the detection limit of ELISA
